# Laboratory results taken from patent US9198918B2, “Benzoxazepin PI3K inhibitor compounds and methods of use” (Genentech, Inc., priority 2009, dated 2015).
# pEC50, pIC50, pKi: −log10 of the molar value.
# Key:
# PI3K alpha (p110 alpha) = molecular target: T1, PI3K alpha (p110 alpha) (Homo sapiens, UniProt P42336); assay: PI3K p110α (alpha) binding assay (Example 901); conditions: for pIC50: read-out: IC50, inhibition of PI3K alpha (binding to p110 alpha)
# T1 construct: purchased Upstate Cell Signaling Solutions, Charlottesville, Va
# T1 sequence (P42336 whole entry): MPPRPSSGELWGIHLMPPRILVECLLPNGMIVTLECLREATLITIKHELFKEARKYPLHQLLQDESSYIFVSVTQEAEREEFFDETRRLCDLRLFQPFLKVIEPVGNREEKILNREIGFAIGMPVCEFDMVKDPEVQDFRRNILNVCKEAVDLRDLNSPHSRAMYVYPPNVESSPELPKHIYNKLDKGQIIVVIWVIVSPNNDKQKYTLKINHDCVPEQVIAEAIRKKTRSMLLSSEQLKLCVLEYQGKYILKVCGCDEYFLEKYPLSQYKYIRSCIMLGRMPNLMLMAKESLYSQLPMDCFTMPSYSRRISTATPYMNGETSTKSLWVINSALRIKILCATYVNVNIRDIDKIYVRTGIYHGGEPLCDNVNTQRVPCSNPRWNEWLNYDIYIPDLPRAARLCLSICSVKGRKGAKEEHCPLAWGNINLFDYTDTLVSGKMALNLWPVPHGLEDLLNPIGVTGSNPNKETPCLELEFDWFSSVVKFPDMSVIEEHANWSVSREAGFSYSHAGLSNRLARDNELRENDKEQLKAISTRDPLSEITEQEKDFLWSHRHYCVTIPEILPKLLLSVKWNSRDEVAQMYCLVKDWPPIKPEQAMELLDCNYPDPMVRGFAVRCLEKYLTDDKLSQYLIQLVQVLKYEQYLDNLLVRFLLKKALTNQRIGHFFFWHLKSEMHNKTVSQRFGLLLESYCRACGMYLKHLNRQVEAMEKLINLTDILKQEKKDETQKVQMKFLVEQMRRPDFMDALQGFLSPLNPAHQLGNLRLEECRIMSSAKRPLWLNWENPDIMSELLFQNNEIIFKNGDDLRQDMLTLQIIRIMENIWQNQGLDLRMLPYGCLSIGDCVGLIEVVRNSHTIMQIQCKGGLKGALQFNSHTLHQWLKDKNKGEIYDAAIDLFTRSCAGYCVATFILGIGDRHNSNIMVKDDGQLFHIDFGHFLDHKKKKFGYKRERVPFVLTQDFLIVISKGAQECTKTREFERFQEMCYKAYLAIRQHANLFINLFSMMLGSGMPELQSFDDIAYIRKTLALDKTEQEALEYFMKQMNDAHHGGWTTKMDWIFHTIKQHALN
# T1 sequence (P27986 whole entry partner): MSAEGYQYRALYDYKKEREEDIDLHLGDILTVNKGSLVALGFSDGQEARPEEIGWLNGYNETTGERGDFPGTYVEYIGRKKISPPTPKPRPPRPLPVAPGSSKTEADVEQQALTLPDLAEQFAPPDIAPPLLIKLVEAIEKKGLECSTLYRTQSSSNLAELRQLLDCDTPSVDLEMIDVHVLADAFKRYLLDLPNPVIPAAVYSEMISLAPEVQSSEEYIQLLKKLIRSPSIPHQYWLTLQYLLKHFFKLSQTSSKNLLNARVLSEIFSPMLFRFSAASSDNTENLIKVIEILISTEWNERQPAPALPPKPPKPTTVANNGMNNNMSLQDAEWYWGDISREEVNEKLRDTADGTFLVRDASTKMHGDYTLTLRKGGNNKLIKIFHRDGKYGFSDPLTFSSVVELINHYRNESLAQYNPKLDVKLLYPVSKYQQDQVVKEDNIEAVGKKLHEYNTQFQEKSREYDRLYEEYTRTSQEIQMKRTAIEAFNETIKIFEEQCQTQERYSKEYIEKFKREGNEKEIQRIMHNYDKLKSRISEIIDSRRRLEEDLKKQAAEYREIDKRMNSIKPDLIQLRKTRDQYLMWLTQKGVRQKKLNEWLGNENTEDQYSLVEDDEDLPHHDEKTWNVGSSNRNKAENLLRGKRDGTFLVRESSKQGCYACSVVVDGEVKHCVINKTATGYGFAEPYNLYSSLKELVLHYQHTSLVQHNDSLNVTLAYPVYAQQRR
# Source text: Determination of the PI3 kinase activity of a Formula I compound is possible by a number of direct and indirect detection methods.
# KM12 = assay: CellTiter-Glo cell proliferation assay, KM12; type: cell-based; conditions: Homo sapiens, Colon, mutation status PTEN
# Protocol: (§1) Efficacy of Formula I compounds was measured by a cell proliferation assay employing the following protocol (Promega Corp. Technical Bulletin TB288; Mendoza et al (2002) Cancer Res. 62:5485-5488):
# (§2) 1. An aliquot of 100 μl of cell culture containing about 104 cells (PC3, Detroit562, or MDAMB361.1) in medium was deposited in each well of a 384-well, opaque-walled plate.
# (§3) 2. Control wells were prepared containing medium and without cells.
# (§4) 3. The compound was added to the experimental wells and incubated for 3-5 days.
# (§5) 4. The plates were equilibrated to room temperature for approximately 30 minutes.
# (§6) 5. A volume of CellTiter-Glo Reagent equal to the volume of cell culture medium present in each well was added.
# 6. […]
# (§7) 7. The plate was incubated at room temperature for 10 minutes to stabilize the luminescence signal.
# (§8) 8. Luminescence was recorded and reported in graphs as RLU=relative luminescence units.
# (§9) Alternatively, cells were seeded at optimal density in a 96 well plate and incubated for 4 days in the presence of test compound. Alamar Blue™ was subsequently added to the assay medium, and cells were incubated for 6 hr before reading at 544 nm excitation, 590 nm emission. EC50 values were calculated using a sigmoidal dose response curve fit. […]
# (§10) The anti-proliferative effects of Formula I exemplary compounds were measured by the CellTiter-Glo® Assay against various tumor cell lines, including the following: […]
# EVSA-T = assay: CellTiter-Glo cell proliferation assay, EVSA-T; type: cell-based; conditions: Homo sapiens, Breast, mutation status PTEN
# Protocol: as §1, §2, §3, §4, §5, §6
# (§11) 6. The contents were mixed for 2 minutes on an orbital shaker to induce cell lysis.
# as §7, §8
# (§12) Alternatively, cells were seeded at optimal density in a 96 well plate and incubated for 4 days in the presence of test compound. Alamar Blue™ was subsequently added to the assay medium, and cells were incubated for 6 hr before reading at 544 nm excitation, 590 nm emission. EC50 values were calculated using a sigmoidal dose response curve fit. The term EC50 refers to the half maximal effective concentration and is the concentration at which a drug induces a response halfway between the baseline and maximum after some specified exposure time. It is commonly used as a measure of drug potency.
# as §10
# PC3 = assay: CellTiter-Glo cell proliferation assay, PC3; type: cell-based; conditions: Homo sapiens, PC-3, Prostate, mutation status PTEN
# Protocol: as §1, §2, §3, §4, §5, §6, §11, §7, §8, §12, §10
# H2122 = assay: CellTiter-Glo cell proliferation assay, H2122; type: cell-based; conditions: Homo sapiens, NCI-H2122, Lung(NSCLC), mutation status K-RAS
# Protocol: as §1, §2, §3, §4, §5, §6, §11, §7, §8, §12, §10
# HCC1954 = assay: CellTiter-Glo cell proliferation assay, HCC1954; type: cell-based; conditions: Homo sapiens, Breast, mutation status PI3K
# Protocol: as §1, §2, §3, §4, §5, §6, §11, §7, §8, §12, §10
# T47D = assay: CellTiter-Glo cell proliferation assay, T47D; type: cell-based; conditions: Homo sapiens, Breast, mutation status PI3K
# Protocol: as §1, §2, §3, §4, §5, §6, §11, §7, §8, §12, §10
# MDST8 = assay: CellTiter-Glo cell proliferation assay, MDST8; type: cell-based; conditions: Colon, mutation status PTEN
# Protocol: as §1, §2, §3, §4, §5, §6
# 6. […]
# as §7, §8, §9, §10
# MFM223 = assay: CellTiter-Glo cell proliferation assay, MFM223; type: cell-based; conditions: Homo sapiens, MFM-223, Breast, mutation status PI3K
# Protocol: as §1, §2, §3, §4, §5, §6, §11, §7, §8, §12, §10
# MDA-MB-361.1 = assay: CellTiter-Glo cell proliferation assay, MDA-MB-361.1; type: cell-based; conditions: Breast, mutation status PI3K
# Protocol: as §1, §2, §3, §4, §5, §6, §11, §7, §8, §12, §10
# BT474 = assay: CellTiter-Glo cell proliferation assay, BT474; type: cell-based; conditions: Homo sapiens, BT-474, Breast, mutation status PI3K(amped)
# Protocol: as §1, §2, §3, §4, §5, §6, §11, §7, §8, §12, §10
# AU565 = assay: CellTiter-Glo cell proliferation assay, AU565; type: cell-based; conditions: Homo sapiens, Breast, mutation status WT
# Protocol: as §1, §2, §3, §4, §5, §6, §11, §7, §8, §12, §10
# H520 = assay: CellTiter-Glo cell proliferation assay, H520; type: cell-based; conditions: Homo sapiens, NCI-H520, Lung(NSCLC), mutation status PTEN
# Protocol: as §1, §2, §3, §4, §5, §6
# 6. […]
# as §7, §8, §9, §10
# KPL4 = assay: CellTiter-Glo cell proliferation assay, KPL4; type: cell-based; conditions: Breast, mutation status PI3K
# Protocol: as §1, §2, §3, §4, §5, §6, §11, §7, §8, §12, §10
# U87MG = assay: CellTiter-Glo cell proliferation assay, U87MG; type: cell-based; conditions: Homo sapiens, U-87 MG, Glioma, mutation status PTEN
# Protocol: as §1, §2, §3, §4, §5, §6
# 6. […]
# as §7, §8, §9, §10
# SKBR3 = assay: CellTiter-Glo cell proliferation assay, SKBR3; type: cell-based; conditions: Homo sapiens, SK-BR-3, Breast, mutation status WT
# Protocol: as §1, §2, §3, §4, §5, §6
# 6. […]
# as §7, §8, §9, §10
# A375 = assay: CellTiter-Glo cell proliferation assay, A375; type: cell-based; conditions: Homo sapiens, A-375, Melanoma, mutation status B-Raf
# Protocol: as §1, §2, §3, §4, §5, §6
# 6. […]
# as §7, §8, §9, §10
smiles,measurement,setting,value
"Clc1ccccc1-n1ncnc1-n1cc2c(n1)-c1cc(C3CCNCC3)ccc1OCC2 [compound 154, 2-(1-(2-chlorophenyl)-1H-1,2,4-triazol-5-yl)-9-piperid-4-yl-4,5-dihydrobenzo-2H-oxepino[4,5-d]pyrazole]",pIC50,PI3K alpha (p110 alpha),9.04
"CC(C)n1ncnc1-c1cn2c(n1)-c1ccc(-c3cn(CCO)cn3)cc1OCC2 [compound 207, 2-(4-(2-(1-isopropyl-1H-1,2,4-triazol-5-yl)-5,6-dihydrobenzo[f]imidazo[1,2-d][1,4]oxazepin-9-yl)-1H-imidazol-1-yl)ethanol]",pEC50,KM12,≤ 5.00
same,pEC50,EVSA-T,5.75
same,pEC50,PC3,6.12
same,pEC50,H2122,≤ 5.00
same,pEC50,HCC1954,5.47
same,pEC50,T47D,6.12
same,pEC50,MDST8,5.11
same,pEC50,MFM223,5.14
same,pEC50,MDA-MB-361.1,≤ 5.00
same,pEC50,BT474,5.78
same,pEC50,AU565,5.43
same,pEC50,H520,5.89
same,pEC50,KPL4,5.87
same,pEC50,U87MG,5.24
"Cc1nc(-c2cn3c(n2)-c2ccc(-c4cnn(C(C)(C)C(=O)O)c4)cc2OCC3)n(C(C)C)n1 [compound 251, 2-(4-(2-(1-isopropyl-3-methyl-1H-1,2,4-triazol-5-yl)-5,6-dihydrobenzo[f]imidazo[1,2-d][1,4]oxazepin-9-yl)-1H-pyrazol-1-yl)-2-methylpropanoic acid]",pIC50,PI3K alpha (p110 alpha),8.85
"NC(=O)c1ccc2c(c1)OCCc1cn(-c3ncnn3-c3ccc(F)cc3F)nc1-2 [compound 107, 2-(1-(2,4-difluorophenyl)-1H-1,2,4-triazol-5-yl)-4,5-dihydrobenzo-2H-oxepino[4,5-d]pyrazole-8-carboxamide]",pEC50,EVSA-T,5.85
same,pEC50,PC3,6.00
same,pEC50,MDA-MB-361.1,5.98
same,pEC50,AU565,6.59
"CC(C)n1ncnc1-c1cn2c(n1)-c1cnc(N3CCC[C@H]3C(N)=O)cc1OCC2 [compound 338, (2S)-1-(2-(1-isopropyl-1H-1,2,4-triazol-5-yl)-5,6-dihydroimidazo[1,2-d]pyrido[3,4-f][1,4]oxazepin-9-yl)pyrrolidine-2-carboxamide]",pIC50,PI3K alpha (p110 alpha),9.49
"CNC(=O)C(C)(C)N1CCC(c2ccc3c(c2)OCCn2cc(-c4ncnn4C(C)C)nc2-3)CC1 [compound 248, 2-(4-(2-(1-isopropyl-1H-1,2,4-triazol-5-yl)-5,6-dihydrobenzo[f]imidazo[1,2-d][1,4]oxazepin-9-yl)piperidin-1-yl)-N,2-dimethylpropanamide]",pIC50,PI3K alpha (p110 alpha),9.43
"CC(C)n1nc(N)nc1-c1cn2c(n1)-c1ccc(F)cc1OCC2 [compound 253, 5-(9-fluoro-5,6-dihydrobenzo[f]imidazo[1,2-d][1,4]oxazepin-2-yl)-1-isopropyl-1H-1,2,4-triazol-3-amine]",pIC50,PI3K alpha (p110 alpha),8.36
"NC(=O)c1ccc2c(c1)-c1nc(-c3ncnn3-c3ccccc3Cl)cn1CCO2 [compound 102, 2-(1-(2-chlorophenyl)-1H-1,2,4-triazol-5-yl)-5,6-dihydrobenzo[f]imidazo[1,2-d][1,4]oxazepine-10-carboxamide]",pIC50,PI3K alpha (p110 alpha),8.52
"CN(C(=O)c1cc2n(n1)-c1ccccc1OCC2)c1ccc(F)cc1F [compound 101, N-(2,4-difluorophenyl)-N-methyl-4,5-dihydrobenzo[b]pyrazolo[1,5-d][1,4]oxazepine-2-carboxamide]",pIC50,PI3K alpha (p110 alpha),6.11
"CS(=O)(=O)CCN1CC(c2ccc3c(c2)OCCc2cn(-c4ncnn4-c4ccc(F)cc4F)nc2-3)C1 [compound 171, 2-(1-(2,4-difluorophenyl)-1H-1,2,4-triazol-5-yl)-8-(1-(2-(methylsulfonyl)ethyl)azetidin-3-yl)-4,5-dihydrobenzo-2H-oxepino[4,5-d]pyrazole]",pIC50,PI3K alpha (p110 alpha),9.18
"Cc1nc(-c2cn3c(n2)-c2ccc(-c4cnn(CCO)c4)cc2OCC3)n(C(C)C)n1 [compound 186, 2-(4-(2-(1-isopropyl-3-methyl-1H-1,2,4-triazol-5-yl)-5,6-dihydrobenzo[f]imidazo[1,2-d][1,4]oxazepin-9-yl)-1H-pyrazol-1-yl)ethanol]",pEC50,EVSA-T,5.70
same,pEC50,PC3,5.89
same,pEC50,H2122,5.53
same,pEC50,HCC1954,6.38
same,pEC50,T47D,6.88
same,pEC50,MFM223,5.96
same,pEC50,MDA-MB-361.1,6.15
same,pEC50,BT474,6.49
same,pEC50,AU565,6.33
same,pEC50,KPL4,7.06
same,pEC50,SKBR3,6.07
"CC(C)n1ncnc1-c1cc2n(n1)-c1cc(C3CN(C(C)(C)CO)C3)ccc1OCC2 [compound 170, 2-(3-(2-(1-isopropyl-1H-1,2,4-triazol-5-yl)-4,5-dihydrobenzo[b]pyrazolo[1,5-d][1,4]oxazepin-9-yl)azetidin-1-yl)-2-methylpropan-1-ol]",pIC50,PI3K alpha (p110 alpha),7.66
"Cc1nc(-c2cn3c(n2)-c2ccc(-c4cnn(C(C)(C)C(N)=O)c4)cc2OCC3)n(C(C)C)n1 [compound 196, 2-(4-(2-(1-isopropyl-3-methyl-1H-1,2,4-triazol-5-yl)-5,6-dihydrobenzo[f]imidazo[1,2-d][1,4]oxazepin-9-yl)-1H-pyrazol-1-yl)-2-methylpropanamide]",pEC50,HCC1954,6.89
same,pEC50,T47D,7.35
same,pEC50,MDA-MB-361.1,6.75
same,pEC50,BT474,7.07
same,pEC50,AU565,6.82
same,pEC50,A375,5.00
same,pEC50,KPL4,7.80
"Cc1nc(-c2cn3c(n2)-c2ccc(OC4COC4)cc2OCC3)n(C(C)C)n1 [compound 520, 2-(1-isopropyl-3-methyl-1H-1,2,4-triazol-5-yl)-9-(oxetan-3-yloxy)-5,6-dihydrobenzo[f]imidazo[1,2-d][1,4]oxazepine]",pKi,"PI3K alpha (p110 alpha); read-out: Ki, inhibition of PI3K alpha (binding to p110 alpha)",8.68
"CC(C)NC(=O)CN1CC(c2ccc3c(c2)OCCn2cc(-c4ncnn4C(C)C)nc2-3)C1 [compound 200, N-isopropyl-2-(3-(2-(1-isopropyl-1H-1,2,4-triazol-5-yl)-5,6-dihydrobenzo[f]imidazo[1,2-d][1,4]oxazepin-9-yl)azetidin-1-yl)acetamide]",pIC50,PI3K alpha (p110 alpha),8.70
"Fc1ccc(-n2ncnc2-n2cc3c(n2)-c2ccc(Br)cc2OCC3)c(F)c1 [compound 103, 2-(1-(2,4-difluorophenyl)-1H-1,2,4-triazol-5-yl)-8-bromo-4,5-dihydrobenzo-2H-oxepino[4,5-d]pyrazole]",pIC50,PI3K alpha (p110 alpha),7.24
